{"source": "paper PMC8360069", "about": "“Prediction and Validation of a Druggable Site on Virulence Factor of Drug Resistant Burkholderia cenocepacia” (Chemistry (Weinheim an Der Bergstrasse, Germany), 2021)", "format_in_all_cases": "binding", "key": {"[1]": {"target": "T1, BC2L-C (Burkholderia cenocepacia, UniProt B4EH86)", "T1 construct": "gene BCAM0185; N-terminal domain (BC2L-C-nt)", "T1 sequence (B4EH86 entry or part of it)": "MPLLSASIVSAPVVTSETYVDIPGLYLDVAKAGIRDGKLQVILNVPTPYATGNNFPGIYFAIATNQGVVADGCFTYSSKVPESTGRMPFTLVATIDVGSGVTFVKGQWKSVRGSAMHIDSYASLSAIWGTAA", "test": "ITC; X-ray crystal structure ([…] Å, with Globo H); STD-NMR"}, "[2]": {"target": "T1, BC2L-C", "test": "STD-NMR in the presence of Me-α-L-Fuc (no density in soaked crystals)"}, "[3]": {"target": "T1, BC2L-C", "test": "STD-NMR; thermal shift assay (about +[…] °C)"}}}
{"smiles": "Cc1nccn1-c1cccc(CN)c1", "note": "[KL3, 3‐(2‐Methyl‐1H‐imidazol‐1‐yl) benzylamine]", "values": [{"measurement": "Kd", "setting": "[1]", "value": 877, "unit": "µM"}]}
{"smiles": "NC(CO)Cc1ccccc1", "note": "(stereo not drawn) [KL9]", "values": [{"measurement": "STD-NMR in the presence of Me-α-L-Fuc (no density in soaked crystals)", "setting": "[2]", "value": "confirming the binding event for the three fragments in the BC2L‐C‐nt/fucose complex"}]}
{"smiles": "CO[C@@H]1O[C@@H](C)[C@@H](O)[C@@H](O)[C@@H]1O", "note": "[Methyl α-L-fucoside]", "values": [{"measurement": "STD-NMR; thermal shift assay (about +2 °C)", "setting": "[3]", "value": "Me‐α‐L‐Fuc was initially tested alone in the experiment, verifying that it binds BC2L‐C‐nt"}]}
